What all share (format): in vivo, mouse
The nature of experiment [1]: Serum triglyceride and cholesterol level measurements, HFD-fed mice (Examples 11-15). To be noted: mice fed HFD 4 months, drug in drinking water (AC261066 1.5 mg/100 ml). The protocol: AC261066(Lund et al., Discovery of a potent, orally available, and isoform-selective retinoic acid beta2 receptor agonist. J Med Chem. 2005; 48(24):7517-9) and CD1530 (Thacher et al. Therapeutic applications for ligands of retinoid receptors. Curr Pharm Des. 2000; 6(1):25-58) was dissolved in dimethyl sulfoxide (DMSO) at the concentration of 1.5 mg/ml for AC261066 and 2.5 mg/ml for CD1530, and diluted in the drinking water for mice to the final concentration of 1.5 mg/100 ml and 2.5 mg/100 ml, respectively.
WT male C57/BL6 male mice were maintained on either a standard laboratory chow-fed diet (Con) with 13% kcal fat, (diet #5053, Lab Diet, Inc, St. Louis, Mo.) or a high fat, western style diet (HFD) with 45% kcals from fat, (diet #58126, Lab Diet, Inc., St. Louis, Mo.) for 4 months. One month after the start of the HFD treatment, the HFD group was further split into 3 groups for 3 months: i) HFD and the drinking water containing 1% DMSO; ii) high fat diet (HFD) and drinking water containing 1.5 mg/100 ml AC261066, a specific RARβ agonist in 1% DMSO or iii) HFD and drinking water containing 1.5 mg/100 ml CD1530, a specific RARγ agonist in 1% DMSO. Then mice were sacrificed by cervical dislocation. Blood and various tissue samples were harvested.
The analysis of serum triglyceride levels was carried out using a bichromatic assay at the Laboratory of Comparative Pathology of the Memorial Sloan-Kettering Cancer Center. Chow-fed diet (Con) n=4; high fat diet (HFD) n=4; high fat diet (HFD)+AC261066 n=4; and high fat diet (HFD)+CD1530, n=4.

Another experiment concerns HF-fed C57/BL6 mice. Briefly: Renal lipid accumulation: H and E and oil red O staining of kidney, HF-fed mice. The note with it: HF diet mice 4 months; vs HF-vehicle. An excerpt: (§1) Mice, diet, and drug treatment. WT male C57/BL6 male mice were maintained on either a standard laboratory chow-fed diet (CFD) with 13% kcal fat, (diet #5053, Lab Diet, Inc, St. Louis, Mo.) or a high fat, western style diet (HFD) with 60% kcals from fat, (diet #58126, Lab Diet, Inc., St. Louis, Mo.) for 4 months. One month after the start of the high fat diet treatment, the high fat diet group was further split into 2 groups for 3 months: i) high fat diet and the drinking water containing 1% DMSO; ii) high fat diet and the drinking water containing 1.5 mg/100 ml AC261066, a specific RARβ agonist. Then mice were sacrificed by cervical dislocation. Blood and various tissue samples were harvested.
Hematoxylin and Eosin Staining. At sacrifice, fresh mouse liver samples were fixed in 4% formaldehyde solution for 24 hr and embedded in paraffin blocks. Kidney paraffin sections were cut 5 microns thick and mounted on glass slides and stained with hematoxylin and eosin (H and E) using standard protocols.
Combined oil red O and Immunofluorescence staining. Fresh mouse kidney samples were embedded in optimal cutting temperature (OCT) medium and immediately frozen to −70 centigrade. Cryosections were then fixed in 4% formaldehyde for 1 hr at room temp. Slides were then rinsed three times in deionized water (dH2O) for 30 s, followed by treatment with 0.5% Triton X-100 in PBS for 5 min. Sections were then washed three times with PBS for 5 min. Samples were with incubated 2% bovine serum albumin (BSA) for 30 min at room temperature to block for unspecific antibody binding. Following blocking, sections were washed three times in PBS and incubated with mouse monoclonal antibody against α-SMA (1:500) (Dako, Inc) for 24 h at 4° C. After 24 h sections were washed three times in PB and incubated with Alexa-Flour-488 anti-mouse secondary anti-body (1:500) (Invitrogen, Inc) for 30 min at room temperature. Sections were then washed three times in PBS and incubated with working strength oil-red O solution for 30 minutes at room temperature. […]

In experiment [2] the test system is α-SMA, SREBP1c, MCP-1, TNF-α mRNA. Description: Semi-quantitative PCR of liver, HF-fed mice. The note with it: HF diet mice 4 months.
Description: as §1
Semi-Quantitate PCR (Liver). Total RNA was extracted from mouse tissues using TRIzol reagent (Life technologies) and (1 μg) was used to synthesize cDNA. cDNA synthesis was performed at 42° C. for 1 h in a final volume of 20 μl using qScript (Quanta, MD). Semi-quantitative PCR were performed Taq DNA polymerase (Invitrogen, CA). Three step PCR was run as follows: 94° C. for 30 s, 58-64° C. for 45 s for primer annealing and 72° C. for 1 min for primer extension. The number of cycles for each primer pair for amplification in the linear range was determined experimentally. PCR products were resolved on 2% agarose gels and visualized by staining with ehtidium bromide. Primers for gene expression used were as follows: […]

Entries after “also recorded” stand apart in the source; their conditions may differ.

For `CCCCOCCOc1nc(-c2ccc(C(=O)O)c(F)c2)sc1C` [AC261066], in experiment [1], the serum cholesterol entry is given as “greatly reduces; also recorded: significantly lower” and the serum triglycerides result was “greatly reduces; also recorded: significantly lower”. Further, in the experiment with HF-fed C57/BL6 mice, the “renal lipid accumulation (H and E)” value was “diminished; also recorded: markedly decreased”; the “renal lipid accumulation (oil red O)” value is given as “marked diminished; also recorded: comparably less”. In addition, in experiment [2], the “hepatic mRNA level of MCP-1” value is on record as “decreases; also recorded: significantly diminish” and the “hepatic mRNA level of TNF-α” value is listed as “decreases”. In experiment [2] (vs HF-vehicle), the “hepatic mRNA level of alpha-SMA” value is “decreased”.

`O=C(O)c1ccc(-c2ccc3cc(O)c(C45CC6CC(CC(C6)C4)C5)cc3c2)cc1` [CD1530]: in experiment [1], the serum cholesterol result is reported as “no decrease” and the serum triglycerides result is recorded as “no decrease”. Moreover, in the experiment with HF-fed C57/BL6 mice, the “renal lipid accumulation (H and E)” value is “no decrease”. Besides, in experiment [2], the “hepatic mRNA level of MCP-1” value is reported as “markedly elevated” and the “hepatic mRNA level of TNF-α” value was “markedly elevated”. For the same compound, the “hepatic mRNA level of SREBP1-c” value in experiment [2] (vs control diet) was “markedly higher”.

The values above are taken from patent US20220304945A1, “METHODS OF TREATING METABOLIC SYNDROME RELATED CONDITIONS USING RETINOIC ACID RECEPTOR AGONISTS” (Cornell University, priority 2014, published 2022).
